Laboratory results as given in patent US20090259054A1, “Methods and Compositions for the Treatment of Angiogenesis and Macular Degeneration” (The Texas A&M University System, priority 2008, published 2009).
Where “and” joins values, the source holds several entries; their conditions need not be identical. Equal entries are not always repeated. Entries after “also recorded” stand apart in the source; their conditions may differ.

How the values were obtained:
HUVEC cells = assay: Transwell migration (invasion) assay; format: cell-based, human; details: 40 nM GA, 4 hours
Protocol: The transwell (Corning Incorporated, NY, USA) were coated with 0.1% gelatin (Sigma) for 30 minutes at 37° C. After washed the transwells three times with 1×PBS, the bottom chambers (600 μl) were filled with ECGM medium with 20% FBS supplemented with 4 ng/ml VEGF and the top chambers were seeded with 100 μl ECGM medium and HUVEC cells (4×10^4 cell/well). The top and bottom chambers contained the same series of concentrations of gambogic acid (GA). HUVEC cells were allowed to migrate for 4 hours at 37° C., 5% CO2. After the incubation, cells on the top surface of the membrane (nonmigrated) were scraped with a cotton swab. Cells on the bottom side of the membrane (migrated cells) were fixed with 4% paraformaldehyde for 20 minutes and washed three times with 1×PBS. The cells were stained by hematoxylin and eosin (hereinafter, H&E) staining and then destained with 1×PBS (pH 7.4). The membranes were left to air dry at room temperature for 30 minutes. Images were taken using an OLYMPUS inverted microscope and migrated cells were quantified by manual counting using high power fields (HPF, 200×). The invaded cells were calculated and percent inhibition was expressed using untreated wells as 100% (t-test, p<0.01).

mice aortic rings = assay: Aortic ring assay (micro-vessel growth); format: cell-based; details: 10 nM GA, 4 days incubation
Protocol: Forty-eight-well plates were covered with 100 μl of Matrigel at 4° C. and incubated at 37° C., 5% CO2 for 30 minutes. Aortas isolated from mice were cleaned of periadventitial fat and connective tissues, and cut into about 1-1.5 mm-long rings. After being rinsed five times with endothelial cell-based medium, the aortas were placed on the Matrigel covered wells and covered with another 100 μl of Matrigel. Artery rings were cultured in 1.5 ml of ECGM medium without serum for 24 hours. The medium was then replaced with 1.5 ml of ECGM medium supplemented with or without GA. The medium was changed every two days with the exact composition as described above. After 4 days incubation, the micro-vessel growth was quantified in the mouse aortic ring assay by taking photographs with an Olympus IX 70 inverted microscope using a 4× objective lens. After images were acquired, the outgrowth area was delineated and measured with Pro Plus software (Media Cybernetics).

[1] = test system: PC3 human prostate tumor cells in SCID male mice; format: in vivo
Protocol: The 5-6 week old severe combined immune deficiency (SCID) male mice (ordered from NIH, each weighing about 20 g) were divided into groups of five mice per group. Log-phase PC3 human prostate tumor cells were subcutaneously injected (2×10^6 cell per mouse) into the mice. After the tumors had become established (about 50 mm^3), the mice were subcutaneously injected with or without 3 mg/kg GA every day. The mice body weights and tumor sizes were recorded every day and the tumor sizes were determined by Vernier caliper measurements and calculated as length×width×height. After 15 days, mice with subcutaneous (hereinafter, s.c.) tumors no greater than 1.5 cm in diameter were sacrificed in accordance with University of California Los Angeles Animal Rights Committee Guidelines. The tumors were removed and fixed with Histochoice® MB (Molecular Biology) tissue fixative (Amresco®) and embedded with paraffin. The 5 μm sections were performed specific blood vessel staining with CHEMICON's Blood Vessel Staining Kit (von Willebrand Factor, Chemicon International, blood vessel staining kit, peroxidase system). Images were taken with a ZEISS Axioskop 40 photomicroscope. The number of blood vessels in the high power fields (HPF, 200×) was counted (plug number=4-5, t-test, p<0.005).

c-Src = c-Src phosphorylation in HUVEC cells (immunoprecipitation, Western blotting); format: cell-based, human; details: HUVEC cells with or without VEGF, GA 1-40 nM, 5 minutes
Protocol: (§1) After starvation in ECGM medium without serum overnight, HUVEC cells were washed with 1×PBS twice, followed with incubation in M199 medium. HUVEC cells were then treated with 1 nM of GA and/or 4 nM of VEGF for 5 minutes, then subjected to immunoprecipitation using anti-VEGFR2 antibody. Anti-phosphotyrosine antibody was used for the detection of phosphorylation of the tyrosine residue of VEGFR2. […] Reaction cocktail containing 100 ng of active VEGFR2 was incubated with different concentrations of GA for 5 minutes at room temperature. Substrate peptide cocktail was added to the pre-incubated reaction cocktail/GA compound. After incubation at room temperature for 30 minutes, stop buffer was added to halt the reaction. 25 μl of each reaction was then transferred with 75 μl dH2O per well into a 96-well streptavidin coated plate and incubated at room temperature for 60 minutes. […] The stop solution was added and the plate was detected at 405 nm. […]
(§2) HUVEC cells pretreated with or without 4 nM VEGF for 5 min were treated with or without different concentrations of GA for another 5 minutes. […] Anti-cleaved caspase 3 antibody (Santa Cruz Biotech) was used for detecting cleaved caspase 3 and polyADP ribose polymerase (PARP) cleavage was detected by an anti-PARP p85 fragment (Promega) in apoptosis assays.

FAK = FAK phosphorylation in HUVEC cells (immunoprecipitation, Western blotting); format: cell-based, human; details: HUVEC cells with or without VEGF, GA 1-40 nM, 5 minutes
Protocol: as §1, §2

mouse cornea = assay: VEGF induced corneal angiogenesis, mouse corneal model; format: in vivo; details: 2.5 μg/ml GA, 160 ng/ml VEGF

CC(C)=CCC[C@]1(C)C=Cc2c(O)c3c(c(CC=C(C)C)c2O1)O[C@]12C(=C[C@@H]4C[C@H]1C(C)(C)O[C@@]2(C/C=C(/C)C(=O)O)C4=O)C3=O [GA, gambogic acid] was tested, and the “Invasion of HUVEC cells (transwell)” value (HUVEC cells) was “inhibit almost all invasion activities”, the “New vessel growth from aortic rings” value (mice aortic rings) was “inhibited almost all new vessel growth” and the “Tumor size after 15 days” value ([1]; 3 mg/kg GA every day s.c., 15 days) was 169.1±25.6 mm^3 and 127.4±25.6 mm^3. For the same compound, the “Average vessel number in tumors” value ([1]; 3 mg/kg GA every day, 15 days, HPF 200×) was 1.8±1.3 per HPF, the “Tumor size at start of treatment” value ([1]; GA treated group, before 3 mg/kg GA every day) was 51.74±3.8 mm^3 and the “Average body weight at start” value ([1]; mouse, in vivo) was 22.4 ± 1 g. For the same compound, the “Phosphorylation and activation of c-Src” value (c-Src) was “significantly inhibited the phosphorylation and activation”, the “Phosphorylation and activation of FAK” value (FAK) was “significantly inhibited the phosphorylation and activation” and the “VEGF induced corneal angiogenesis” value (mouse cornea) was “significantly inhibits corneal angiogenesis; also recorded: dramatically inhibits”.
